Values quoted from earlier work, collected in patent US20120289492A1, “METHODS OF TREATING MITOCHONDRIAL DISORDERS USING METALLOPORPHYRINS” (priority 2009, published 2012).

Legend:
[1] = safety studies in mice, monkeys and rats; phase 1 in amyotrophic lateral sclerosis patients; cited from earlier work
CD-1 Sod2−/− mice = details: cited from earlier work

In the case of `CCN1C=CN(CC)C1=C1C2=NC(=C(c3n(CC)cc[n+]3CC)C3=NC(=C(c4n(CC)cc[n+]4CC)c4ccc([n-]4)C(c4n(CC)cc[n+]4CC)=C4C=CC1=N4)C=C3)C=C2.[Cl-].[Cl-].[Cl-].[Cl-].[Cl-].[Mn+3]` [AEOL10150], the serious adverse events [1] is given as “No serious adverse events have been found”.

For `[Cl-].[Mn+3].[O-]c1ccccc1C=NCCN=Cc1ccccc1[O-]` [EUK8], the neurodegeneration (CD-1 Sod2−/− mice) is given as “ameliorated” and the spongiform encephalopathy (CD-1 Sod2−/− mice) is given as “ameliorated”.

For `COc1cccc(C=NCCN=Cc2cccc(OC)c2[O-])c1[O-].[Cl-].[Mn+3]` [EUK134], the neurodegeneration (CD-1 Sod2−/− mice) is given as “ameliorated” and the spongiform encephalopathy (CD-1 Sod2−/− mice) is given as “ameliorated”.

In the case of `O=C(O)c1ccc(/C2=C3\C=CC(=N3)/C(c3ccc(C(=O)O)cc3)=c3/cc/c4[n]3[Mn]([Cl])[n]3c2ccc3/C(c2ccc(C(=O)O)cc2)=C2/C=CC(=N2)\C=4c2ccc(C(=O)O)cc2)cc1` [MnTBAP, manganese tetrakis 5, 10, 15, 20 . . . porphyrin], the cardiomyopathy (CD-1 Sod2−/− mice) is given as “ameliorated” and the neurodegeneration (CD-1 Sod2−/− mice) is given as “but not neurodegeneration”.
